In patent US9126945B2, “N-(3-carbamoylphenly)-1H-pyrazole-5-carboxamide derivatives and the use thereof for controlling animal pests” (BAYER INTELLECTUAL PROPERTY GMBH, priority 2011, dated 2015):

Key:
[1] = test system: Spodoptera frugiperda; experiment: Spodoptera frugiperda test (SPODFR spray treatment), maize leaf discs; assay type: in vivo
Source text: Spodoptera frugiperda Test (SPODFR Spray Treatment)

[2] = test system: Tetranychus urticae; experiment: Tetranychus test, OP-resistant (TETRUR spray treatment), bean leaf discs; assay type: in vivo; conditions: application rate 500 g/ha; after 6 days
Procedure: Tetranychus Test, OP-Resistant (TETRUR Spray Treatment)
After a time of 6 days, the efficacy in % is determined.

[3] = test system: Ctenocephalides felis; experiment: Ctenocephalides felis oral (CTECFE); assay type: in vivo
Procedure: Ctenocephalides felis Oral (CTECFE)
Solvent: 1 part by weight of dimethyl sulphoxide
For the purpose of producing a suitable preparation of active compound, 10 mg of active compound are mixed with 0.5 ml of dimethyl sulphoxide. A portion of the concentrate is diluted with citrated cattle blood, and the desired concentration is prepared.
(§1) About 20 unfed adult fleas (Ctenocephalides felis) are placed into a chamber which is closed at the top and bottom with gauze. A metal cylinder whose bottom end is closed with parafilm is placed onto the chamber. The cylinder contains the blood/active compound preparation, which can be taken up by the fleas through the parafilm membrane. After 2 days, the kill in % is determined.
For the purpose of preparing an appropriate active compound formulation, 10 mg of active compound are mixed with 0.5 ml of dimethyl sulphoxide. A portion of the concentrate is diluted with citrated cattle blood, and the desired concentration is prepared.
as §1, with “membrane.” for “membrane. After 2 days, the kill in % is determined.”

[4] = test system: Lucilia cuprina larvae; experiment: Lucilia cuprina test (LUCICU); assay type: in vivo; conditions: 100 ppm; after 2 days
Procedure: Lucilia cuprina Test (LUCICU)
(§2) Solvent: dimethyl sulphoxide
Vessels containing horse meat treated with the active compound preparation of the desired concentration are populated with about 20 Lucilia cuprina larvae.
(§3) After 2 days, the kill in % is determined.

[5] = test system: Musca domestica; experiment: Musca domestica test (MUSCDO); assay type: in vivo
Procedure: Musca domestica Test (MUSCDO)
as §2
Vessels containing a sponge treated with the active compound preparation of the desired concentration are populated with adult Musca domestica.
as §3
Vessels containing a sponge treated with the active compound formulation of the desired concentration are populated with adult Musca domestica.
After the desired period of time, the kill in % is determined.

[6] = test system: Boophilus microplus; experiment: Boophilus microplus test (BOOPMI injection); assay type: in vivo; conditions: for % Activity dat: BOOPMI injection, 7 dat
Procedure: Boophilus microplus Test (BOOPMI Injection)
as §2
The active compound solution is injected into the abdomen (Boophilus microplus), and the animals are transferred into dishes and stored in a climate-controlled room. The activity is assessed by laying of fertile eggs.
The active compound solution is injected into the abdomen (Boophilus microplus), and the animals are transferred into dishes and stored in a climate-controlled room.
The activity is assessed by laying of fertile eggs. 100% means that none of the ticks has laid any fertile eggs.

[7] = test system: Amblyomma hebraeum; experiment: Amblyomma hebaraeum test (AMBYHE); assay type: in vivo; conditions: 100 ppm; after 42 days
Procedure: Amblyomma hebaraeum Test (AMBYHE)
as §2
Tick nymphs (Amblyomma hebraeum) are placed into perforated plastic beakers and immersed in the desired concentration for one minute. The ticks are transferred on filter paper into a Petri dish and stored in a climate-controlled cabinet.
After 42 days, the kill in % is determined.

[8] = test system: Phaedon cochleariae; experiment: Phaedon cochleariae spray test (PHAECO), cabbage leaves, ppm; assay type: in vivo; conditions: 168 h, 4 ppm, 7 dat
Source text: Phaedon cochleariae Spray Test (PHAECO)
(§4) Solvent: 7 parts by weight of dimethylformamide
(§5) Emulsifier: 2 parts by weight of alkylaryl polyglycol ether
(§6) If the addition of ammonium salts or/and penetrants is required, these are in each case added in a concentration of 1000 ppm to the solution of the preparation.

[9] = test system: Plutella xylostella; experiment: Plutella xylostella spray test (PLUTMA); assay type: in vivo; conditions: 168 h, 7 dat
Source text: Plutella xylostella Spray Test (PLUTMA)
as §4, §5, §6

[10] = test system: Spodoptera frugiperda; experiment: Spodoptera frugiperda spray test (SPODFR), cotton leaves, ppm; assay type: in vivo; conditions: 168 h, 7 dat
Source text: Spodoptera frugiperda Spray Test (SPODFR)
as §4, §5, §6
Cotton leaves (Gossypium hirsutum) are sprayed with an active compound formulation of the desired concentration and populated with caterpillars of the armyworm (Spodoptera frugiperda).

[11] = test system: Heliothis armigera; experiment: Heliothis armigera spray test (HELIAR); assay type: in vivo; conditions: Helicoverpa armigera, 168 h, 7 dat
Source text: Heliothis armigera Spray Test (HELIAR)
as §4, §5, §6

[12] = test system: Tetranychus urticae; experiment: Tetranychus urticae spray test, OP-resistant (TETRUR), bean plants, ppm; assay type: in vivo; conditions: 168 h, 7 dat
Source text: Tetranychus urticae Spray Test, OP-Resistant (TETRUR)
as §4, §5, §6

[13] = test system: Nilaparvata lugens; experiment: Nilaparvata lugens spray test (NILALU); assay type: in vivo; conditions: 168 h, 7 dat
Source text: Nilaparvata lugens Spray Test (NILALU)
as §6

[14] = test system: Frankliniella occidentalis; experiment: Frankliniella occidentalis spray test (FRANOC); assay type: in vivo; conditions: 168 h, 7 dat
Source text: Frankliniella occidentalis Spray Test (FRANOC)
as §6

[15] = test system: Liriomyza trifolii; experiment: Liriomyza trifolii spray test (LIRITR); assay type: in vivo; conditions: 168 h, 7 dat
Source text: Liriomyza trifolii Spray Test (LIRITR)
as §6

[16] = log P by HPLC, EEC Directive 79/831 Annex V.A8, method a); assay type: physicochemical; conditions: reversed-phase C18 HPLC column; cell marked a): HPLC, reversed-phase C18, acetonitrile/water with formic acid, gradient 10% to 95% acetonitrile
Summary of the method: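 Reversed-phase C18 HPLC (50*4.6, 1.8 micron) per EEC Directive 79/831 Annex V.A8, acetonitrile/water with formic acid, gradient 10% to 95% acetonitrile over 4.25 min then 1.25 min hold; 55° C, 2.0 ml/min, with MS detection.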

Cn1nc(C(F)(F)C(F)(F)F)c(C(F)(F)F)c1C(=O)Nc1ccc(Cl)c(C(=O)NC2(C#N)CC2)c1 [Example 10]
inhibition at 100 g/ha ([1]; Spodoptera frugiperda, foliar, 168 h, SPODFR, 100 g/ha, 7 dat): 100% | efficacy in % ([1]; application rate 500 g/ha, after 7 days): 100% | efficacy in % [2]: 90% | kill in % (effect) ([3]; 100 ppm, after 2 days): 100% | inhibition at 0.8 ppm ([3]; Ctenocephalides felis, po, 48 h, CTECFE, 0.8 ppm, 2 dat): 90% | inhibition at 4 ppm ([3]; Ctenocephalides felis, po, 48 h, CTECFE, 4 ppm, 2 dat): 98% | inhibition at 20 ppm ([3]; Ctenocephalides felis, po, 48 h, CTECFE, 20 ppm, 2 dat): 100% | kill in % (efficacy) [4]: 100% | kill in % (efficacy) ([5]; 100 ppm, after 2 days): 100% | inhibition at 100 ppm ([5]; Musca domestica, 48 h, MUSCDO, 2 dat): 100% | efficacy in % (laying of fertile eggs) ([6]; 20 μg/animal, after 7 days): 100% | % Activity dat ([6]; 0.16 μg/animal): 80% | % Activity dat ([6]; 0.8 μg/animal): 100% | kill in % (effect) [7]: 100% | inhibition at 4 ppm [8]: 100% | inhibition at 20 ppm [9]: 100% | inhibition at 20 ppm [10]: 100% | inhibition at 20 ppm ([11]; 20 ppm): 100% | inhibition at 100 ppm ([11]; 100 ppm): 100% | inhibition at 4 ppm ([12]; 4 ppm): 100% | inhibition at 20 ppm ([12]; 20 ppm): 100% | inhibition at 100 g/ha ([13]; 100 g/ha): 100% | inhibition at 500 g/ha ([13]; 500 g/ha): 100% | inhibition at 20 g/ha ([14]; 20 g/ha): 90% | inhibition at 500 g/ha ([14]; 500 g/ha): 100% | inhibition at 500 g/ha [15]: 100% | chromatographic logP [16]: 3.27
